According to the supplement of paper PMC4862054:
Several values for one entry are separate records, joined by “and”; a condition that tells them apart may be missing. Equal values may be shown once.

Experiments:
Experiment in all cases: normalised viability (% of control), CellTiter-Blue; higher = more viable cells (about 100 = DMSO control)
Details in all cases: incubation time: 72 h
MFM-223 = test system: MFM-223
How it was run: (§1)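 384-well plates were pre-loaded with compound in 5 µl medium before 20 µl of breast cancer cell suspension was seeded. Following 72 h incubation, 2.5 µl CellTiter-Blue reagent was added for 2 h at 37 °C. Fluorescence was read at 560/590 nm and plates were normalised to vehicle (100) and a positive kill control (0), checked by Z'-factor. Normalised viability is reported at a single listed concentration of the series.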

CAL-148 [1] = test system: CAL-148
How it was run: as §1

BT-474 = test system: BT-474
How it was run: as §1

Hs578T [2] = test system: Hs578T
How it was run: as §1

CAL-51 [3] = test system: CAL-51
How it was run: as §1

HCC1599 [4] = test system: HCC1599
How it was run: as §1

BT-549 = test system: BT-549
How it was run: as §1

HDQ-P1 [5] = test system: HDQ-P1
How it was run: as §1

HCC1937 = test system: HCC1937
How it was run: as §1

HCC1143 = test system: HCC1143
How it was run: as §1

MDA-MB-453 = test system: MDA-MB-453
How it was run: as §1

MDA-MB-468 [6] = test system: MDA-MB-468
How it was run: as §1

MDA-MB-436 [7] = test system: MDA-MB-436
How it was run: as §1

DU-4475 = test system: DU-4475
How it was run: as §1

SK-BR-3 = test system: SK-BR-3
How it was run: as §1

MDA-MB-231 = test system: MDA-MB-231
How it was run: as §1

CAL-120 [8] = test system: CAL-120
How it was run: as §1

CAL-85-1 [9] = test system: CAL-85-1
How it was run: as §1

CAL-148 [10] = test system: CAL-148; remark: listed apart in the source
How it was run: as §1

Hs578T [11] = test system: Hs578T; remark: listed apart in the source
How it was run: as §1

CAL-51 [12] = test system: CAL-51; remark: listed apart in the source
How it was run: as §1

HCC1599 [13] = test system: HCC1599; remark: listed apart in the source
How it was run: as §1

HDQ-P1 [14] = test system: HDQ-P1; remark: listed apart in the source
How it was run: as §1

MDA-MB-468 [15] = test system: MDA-MB-468; remark: listed apart in the source
How it was run: as §1

MDA-MB-436 [16] = test system: MDA-MB-436; remark: listed apart in the source
How it was run: as §1

CAL-120 [17] = test system: CAL-120; remark: listed apart in the source
How it was run: as §1

CAL-85-1 [18] = test system: CAL-85-1; remark: listed apart in the source
How it was run: as §1

With `Cc1cccc(-c2nn3c(c2-c2ccnc4ccc(C(N)=O)cc24)CCC3)n1` the normalised viability (MFM-223; 1 nM) was 96.6%, the normalised viability (MFM-223; 100 nM) was 96.5% and the normalised viability (MFM-223; 1000 nM) was 93.6%. For the same compound, the normalised viability (CAL-148 [1]; 0.3 nM) was 93.4%, the normalised viability (CAL-148 [1]; 3 nM) was 95.2% and the normalised viability (CAL-148 [1]; 10 nM) was 92.9%. The normalised viability (BT-474; 1 nM) was 120%, the normalised viability (BT-474; 100 nM) was 110% and the normalised viability (BT-474; 1000 nM) was 130%. For the same compound, the normalised viability (Hs578T [2]; 1 nM) was 106%, the normalised viability (Hs578T [2]; 100 nM) was 112% and the normalised viability (Hs578T [2]; 1000 nM) was 89.9%. The normalised viability (CAL-51 [3]; 0.3 nM) was 100%, the normalised viability (CAL-51 [3]; 3 nM) was 93.8% and the normalised viability (CAL-51 [3]; 10 nM) was 96.5%. It also gave a normalised viability (HCC1599 [4]; 1 nM) of 86.8%, a normalised viability (HCC1599 [4]; 100 nM) of 91.6% and a normalised viability (HCC1599 [4]; 1000 nM) of 96.8%. For the same compound, the normalised viability (BT-549; 1 nM) was 93.8%, the normalised viability (BT-549; 100 nM) was 98.3% and the normalised viability (BT-549; 1000 nM) was 109%. It also gave a normalised viability (HDQ-P1 [5]; 0.3 nM) of 120%, a normalised viability (HDQ-P1 [5]; 3 nM) of 117% and a normalised viability (HDQ-P1 [5]; 10 nM) of 134%. For the same compound, the normalised viability (HCC1937; 1 nM) was 157%, the normalised viability (HCC1937; 100 nM) was 108% and the normalised viability (HCC1937; 1000 nM) was 126%. It also gave a normalised viability (HCC1143; 1 nM) of 98.3%, a normalised viability (HCC1143; 100 nM) of 91% and a normalised viability (HCC1143; 1000 nM) of 91.1%. The normalised viability (MDA-MB-453; 0.3 nM) was 122%, the normalised viability (MDA-MB-453; 3 nM) was 108% and the normalised viability (MDA-MB-453; 10 nM) was 97.2%. It also gave a normalised viability (MDA-MB-468 [6]; 1 nM) of 106%, a normalised viability (MDA-MB-468 [6]; 100 nM) of 120% and a normalised viability (MDA-MB-468 [6]; 1000 nM) of 105%. It also gave a normalised viability (MDA-MB-436 [7]; 1 nM) of 120%, a normalised viability (MDA-MB-436 [7]; 100 nM) of 96.9% and a normalised viability (MDA-MB-436 [7]; 1000 nM) of 128%. For the same compound, the normalised viability (DU-4475; 0.3 nM) was 113%, the normalised viability (DU-4475; 3 nM) was 100% and the normalised viability (DU-4475; 10 nM) was 115%. The normalised viability (SK-BR-3; 1 nM) was 116%, the normalised viability (SK-BR-3; 100 nM) was 101% and the normalised viability (SK-BR-3; 1000 nM) was 103%. It also gave a normalised viability (MDA-MB-231; 1 nM) of 109%, a normalised viability (MDA-MB-231; 100 nM) of 128% and a normalised viability (MDA-MB-231; 1000 nM) of 111%. It also gave a normalised viability (CAL-120 [8]; 1 nM) of 97.9%, a normalised viability (CAL-120 [8]; 100 nM) of 92.8% and a normalised viability (CAL-120 [8]; 1000 nM) of 106%. It also gave a normalised viability (CAL-85-1 [9]; 0.3 nM) of 99.3%, a normalised viability (CAL-85-1 [9]; 3 nM) of 94.2% and a normalised viability (CAL-85-1 [9]; 10 nM) of 101%. For the same compound, the normalised viability (CAL-148 [10]; 1 nM) was 99%, the normalised viability (Hs578T [11]; 10 nM) was 96.2% and the normalised viability (CAL-51 [12]; 1 nM) was 96.1%. The normalised viability (HCC1599 [13]; 10 nM) was 101%, the normalised viability (HDQ-P1 [14]; 1 nM) was 106% and the normalised viability (MDA-MB-468 [15]; 10 nM) was 110%. For the same compound, the normalised viability (MDA-MB-436 [16]; 10 nM) was 127%, the normalised viability (CAL-120 [17]; 10 nM) was 95.1% and the normalised viability (CAL-85-1 [18]; 1 nM) was 97.7%.
`COc1nc(N)nc2c1ncn2[C@@H]1O[C@H](CO)[C@@H](O)[C@@H]1O` [Nelarabine] was tested, and the normalised viability (MFM-223; 10 nM) was 108% and 111%, the normalised viability (MFM-223; 1000 nM) was 94.9% and 98.1% and the normalised viability (MFM-223; 10000 nM) was 103% and 104%. For the same compound, the normalised viability (CAL-148 [1]; 3 nM) was 92% and 97%, the normalised viability (CAL-148 [1]; 30 nM) was 94.7% and 93.5% and the normalised viability (CAL-148 [1]; 100 nM) was 95.4% and 91.8%. For the same compound, the normalised viability (BT-474; 10 nM) was 96.7% and 102%, the normalised viability (BT-474; 1000 nM) was 92.1% and 93.3% and the normalised viability (BT-474; 10000 nM) was 92.8% and 94.6%. The normalised viability (Hs578T [2]; 10 nM) was 103% and 92.6%, the normalised viability (Hs578T [2]; 1000 nM) was 103% and 95.2% and the normalised viability (Hs578T [2]; 10000 nM) was 89.4% and 85.8%. The normalised viability (CAL-51 [3]; 3 nM) was 106% and 105%, the normalised viability (CAL-51 [3]; 30 nM) was 98.7% and 104% and the normalised viability (CAL-51 [3]; 100 nM) was 97.4% and 106%. For the same compound, the normalised viability (HCC1599 [4]; 10 nM) was 115% and 117%, the normalised viability (HCC1599 [4]; 1000 nM) was 108% and 123% and the normalised viability (HCC1599 [4]; 10000 nM) was 136% and 114%. The normalised viability (BT-549; 10 nM) was 95.2% and 85.3%, the normalised viability (BT-549; 1000 nM) was 98% and 91% and the normalised viability (BT-549; 10000 nM) was 86.4% and 80.4%. The normalised viability (HDQ-P1 [5]; 3 nM) was 77.3% and 89.3%, the normalised viability (HDQ-P1 [5]; 30 nM) was 91.1% and 89.2% and the normalised viability (HCC1937; 1000 nM) was 109% and 93.9%. For the same compound, the normalised viability (HCC1937; 10000 nM) was 92.3% and 80.8%, the normalised viability (HCC1143; 1000 nM) was 103% and 88.2% and the normalised viability (HCC1143; 10000 nM) was 105% and 89.6%. The normalised viability (MDA-MB-453; 3 nM) was 93.2% and 104%, the normalised viability (MDA-MB-453; 30 nM) was 99.5% and 116% and the normalised viability (MDA-MB-453; 100 nM) was 93.8% and 101%. The normalised viability (MDA-MB-468 [6]; 10 nM) was 97.3% and 99%, the normalised viability (MDA-MB-468 [6]; 1000 nM) was 93.2% and 93.8% and the normalised viability (MDA-MB-468 [6]; 10000 nM) was 94.3% and 93.1%. For the same compound, the normalised viability (MDA-MB-436 [7]; 10000 nM) was 91.2% and 94.8%, the normalised viability (DU-4475; 3 nM) was 117% and 116% and the normalised viability (DU-4475; 30 nM) was 97% and 101%. For the same compound, the normalised viability (DU-4475; 100 nM) was 106% and 126%, the normalised viability (SK-BR-3; 10 nM) was 93.9% and 93.6% and the normalised viability (SK-BR-3; 10000 nM) was 102% and 82.1%. For the same compound, the normalised viability (MDA-MB-231; 10 nM) was 88.9% and 90.1%, the normalised viability (MDA-MB-231; 1000 nM) was 87.8% and 95% and the normalised viability (MDA-MB-231; 10000 nM) was 92.7% and 89.8%. For the same compound, the normalised viability (CAL-120 [8]; 10 nM) was 109% and 93.6%, the normalised viability (CAL-120 [8]; 1000 nM) was 96.1% and 105% and the normalised viability (CAL-120 [8]; 10000 nM) was 95.9% and 107%. The normalised viability (CAL-85-1 [9]; 3 nM) was 99.3% and 102%, the normalised viability (CAL-85-1 [9]; 30 nM) was 98.7% and 100% and the normalised viability (CAL-85-1 [9]; 100 nM) was 101% and 102%. The normalised viability (CAL-148 [10]; 10 nM) was 104% and 85.5%, the normalised viability (Hs578T [11]; 100 nM) was 75.9% and 85.7% and the normalised viability (CAL-51 [12]; 10 nM) was 102% and 103%. For the same compound, the normalised viability (HCC1599 [13]; 100 nM) was 98.1% and 113%, the normalised viability (HDQ-P1 [14]; 10 nM) was 82.8% and 82.6% and the normalised viability (MDA-MB-468 [15]; 100 nM) was 104% and 97.9%. The normalised viability (MDA-MB-436 [16]; 100 nM) was 90.6% and 83.6%, the normalised viability (CAL-120 [17]; 100 nM) was 112% and 101% and the normalised viability (CAL-85-1 [18]; 10 nM) was 94.4% and 97.7%.
